Results from patent US10759787B2, “Benzofuran derivative, preparation method thereof and use thereof in medicine” (Jiangsu Hengrui Medicine Co., Ltd., priority 2015, dated 2020).

Experiments:
[1] = Pharmacokinetics assay in SD rats after intragastrical administration; assay type: in vivo; settings: both sexes, Sprague-Dawley, rat, plasma, po, 5 mg/kg; for Vd/F: read-out: Apparent Distribution Volume Vz/F; for AUC: read-out: Area Under Curve AUC; for CL/F: read-out: Clearance CL/F; for half-life: read-out: Half-Life t1/2 (converted); for MRT: read-out: Mean Residence Time MRT; for Cmax: read-out: Plasma Conc. Cmax
Protocol: Test Example 3. Pharmacokinetics Assay of the Compounds of Examples 1, 2, 3 and 9 of the Present Invention
SD rats were used as test animals. The drug concentration in plasma at different time points was determined by LC/MS/MS after intragastrical administration of the compounds of Examples 1, 2, 3 and 9 to the rats. The pharmacokinetic behavior of the compounds of the present invention was studied and evaluated in rats.
16 healthy adult Sprague-Dawley (SD) rats, half male and half female, were purchased from SINO-BRITSH SIPPR/BK LAB. ANIMAL LTD., CO, with Certificate No.: SCXK (Shanghai) 2008-0016.
The appropriate amount of each compound was weighed, and added with 0.5% CMC-Na (containing 1% Tween 80) to prepare a 1.0 mg/mL suspension by grinding.
After an overnight fast, 16 SD rats were divided into 4 groups equally, half male and half female, and administered intragastrically the test compounds at an administration volume of 5 mL/kg.
Blood (0.2 mL) was taken from the orbital sinus before administration and at 0.5, 1.0, 2.0, 4.0, 6.0, 8.0, 11.0, and 24.0 hours after administration. The samples were stored in heparinized tubes, and centrifuged for 10 minutes at 3,500 rpm to separate the blood plasma. The plasma samples were stored at −20° C.
The plasma concentration of the test compounds in rat plasma after intragastric administration was determined by LC-MS/MS.
Pharmacokinetic parameters of the compounds of Examples 1, 2, 3 and 9 of the present invention are shown below: […]

[2] = system: Pfeiffer cells; experiment: In vitro anti-tumor cell growth assay (CellTiter-Glo), Pfeiffer; assay type: cell-based; settings: Homo sapiens, 120 h; Pfeiffer cells (A677G mutant), 5 days; read-out: IC50 for inhibiting the growth activity of tumor cells (Pfeiffer) in vitro
Protocol: (§1) Test Example 2. Assay for Determining In Vitro Anti-Tumor Cell Growth Activity of the Example Compounds of the Present Invention
(§2) This method was used to determinate the inhibitory effect of the compounds of the present invention on the growth activity of tumor cells (Pfeiffer or WSU-DLCL2) in vitro. Pfeiffer cells carry A677G mutant, and WSU-DLCL2 cells carry Y641F mutant.
(§3) The lymphoma suspension cell line (Pfeiffer or WSU-DLCL2) was cultured in a RPMI-1640 medium containing 10% inactivated Fetal Bovine Serum, 100 U/mL penicillin, and 100 μg/mL streptomycin, and incubated in an incubator with 5% carbon dioxide at 37° C. under a saturated humidity condition, and passaged every 3-4 days.
(§4) A cell sudpension was prepared with a fresh cell medium, added to a 96-well cell culture plate at 8000 cells/well (Pfeiffer) or 2000 cells/well (WSU-DLCL2), and incubated in 5% carbon dioxide at 37° C. incubator overnight. On the day of the experiment, the EZH2 test compounds (final concentration: 20000, 2000, 200, 20, 2, 0.2 nM) were added into the experimental wells for 3 parallel wells per group. A control well with the medium alone but without cells was set up to obtain the background luminescent value. The cell culture plate was incubated in an incubator with 5% carbon dioxide at 37° C. for 5 days.
(§5) After the compounds were applied to the cells for 5 days, the cell culture plate was placed at room temperature for 30 minutes, then a CellTiter-Glo reagent equal to the volume of cell culture medium was added to each well. The contents were mixed on a shaker for 10 minutes, and the […] signal values were recorded. The cell growth inhibition rate was calculated, and the formula was: cell growth inhibiton rate=[(negative control control−experimental group)/(negative control group−background luminescent value)]×100%. The IC50 values (half inhibition rate IC50, i.e., a drug concentration that is required for 50% cell growth inhibition rate) were calculated by software from the cell growth inhibiton rate and the corresponding concentration.

[3] = target: EZH2-A677G (Homo sapiens (Human), UniProt Q15910, A677G); experiment: EZH2-A677G mutant enzyme activity assay (HTRF); assay type: biochemical; settings: read-out: IC50 for inhibiting the activity of enzyme EZH2-A677G
Protocol: (§6) Histone H3 biotin labeling and S-adenosyl methionine were respectively diluted to 50 nM and 50 μM with a kinase buffer, then added to a 384-well plate at 4 μl/well. The test compound was diluted with a kinase buffer (it was diluted from the highest concentration 30 μM in 10 fold concentration gradient to 7 concentration points), then added to the 384-well microtiter plate at 4 μl/well. The plate was incubated at room temperature for 2 hours. Histone H3K27 Me3 monoclonal antibody and Streptavidin-XL665 were diluted to 30 nM and 500 nM by HTRF detection buffer, then added to the 384-well microplate at 10 µl/well and incubated for 1 hour. A well without an EZH2 enzyme and a compound was used as a negative control, and a well with an EZH2 enzyme but without a compound was used as a positive control. […] The compound logarithm concentration vs the inhibition percentage relative to the positive control well was plotted using GraphPad Prism, then the IC50 values were calculated.

[4] = system: WSU-DLCL2 cells; experiment: In vitro anti-tumor cell growth assay (CellTiter-Glo), WSU-DLCL2; assay type: cell-based; settings: Homo sapiens, WSUDLCL2, 120 h; WSU-DLCL2 cells (Y641F mutant), 5 days; read-out: IC50 for inhibiting the growth activity of tumor cells (WSU-DLCL2) in vitro
Protocol: as §1, §2, §3, §4, §5

[5] = target: EZH2-Y641F (Homo sapiens (Human), UniProt Q15910, Y641F); experiment: EZH2-Y641F mutant enzyme activity assay (HTRF); assay type: biochemical; settings: read-out: IC50 for inhibiting the activity of enzyme EZH2-Y641F
Protocol: as §6

Chain of EZH2-Y641F (Q15910 whole entry Y641F): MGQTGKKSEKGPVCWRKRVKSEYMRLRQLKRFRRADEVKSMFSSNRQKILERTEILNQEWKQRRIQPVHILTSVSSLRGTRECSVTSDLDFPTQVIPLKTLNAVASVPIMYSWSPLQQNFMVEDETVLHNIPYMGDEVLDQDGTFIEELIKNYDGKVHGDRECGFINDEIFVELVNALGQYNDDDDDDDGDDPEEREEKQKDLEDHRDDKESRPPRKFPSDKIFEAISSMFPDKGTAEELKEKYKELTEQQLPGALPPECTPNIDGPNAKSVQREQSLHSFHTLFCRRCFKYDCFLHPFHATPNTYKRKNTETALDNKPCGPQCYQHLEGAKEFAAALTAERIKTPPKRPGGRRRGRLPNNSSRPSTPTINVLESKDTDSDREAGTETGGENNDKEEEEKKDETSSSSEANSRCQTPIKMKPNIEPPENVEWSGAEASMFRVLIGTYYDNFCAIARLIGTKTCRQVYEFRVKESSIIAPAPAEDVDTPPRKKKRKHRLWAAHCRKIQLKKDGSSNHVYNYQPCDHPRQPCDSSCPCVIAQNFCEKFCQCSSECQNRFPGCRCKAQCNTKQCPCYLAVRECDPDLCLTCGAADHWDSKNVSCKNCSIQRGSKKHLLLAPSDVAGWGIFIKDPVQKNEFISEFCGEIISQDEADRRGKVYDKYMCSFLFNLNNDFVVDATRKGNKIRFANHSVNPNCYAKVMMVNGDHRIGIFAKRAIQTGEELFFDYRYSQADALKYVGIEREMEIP
Chain of EZH2-Y641F (O75530 whole entry partner): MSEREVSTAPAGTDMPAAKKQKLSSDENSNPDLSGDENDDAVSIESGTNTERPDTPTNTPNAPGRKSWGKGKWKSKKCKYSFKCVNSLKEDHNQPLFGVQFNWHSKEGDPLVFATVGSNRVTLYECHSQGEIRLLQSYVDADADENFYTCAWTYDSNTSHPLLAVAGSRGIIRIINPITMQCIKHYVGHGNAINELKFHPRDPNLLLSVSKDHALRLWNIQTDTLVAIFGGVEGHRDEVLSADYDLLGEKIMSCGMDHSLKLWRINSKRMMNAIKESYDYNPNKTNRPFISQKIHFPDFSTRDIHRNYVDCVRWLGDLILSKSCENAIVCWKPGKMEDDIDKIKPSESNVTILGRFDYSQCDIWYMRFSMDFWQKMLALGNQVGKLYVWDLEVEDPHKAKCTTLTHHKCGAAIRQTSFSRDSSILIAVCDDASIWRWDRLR
Chain of EZH2-Y641F (Q15022 whole entry partner): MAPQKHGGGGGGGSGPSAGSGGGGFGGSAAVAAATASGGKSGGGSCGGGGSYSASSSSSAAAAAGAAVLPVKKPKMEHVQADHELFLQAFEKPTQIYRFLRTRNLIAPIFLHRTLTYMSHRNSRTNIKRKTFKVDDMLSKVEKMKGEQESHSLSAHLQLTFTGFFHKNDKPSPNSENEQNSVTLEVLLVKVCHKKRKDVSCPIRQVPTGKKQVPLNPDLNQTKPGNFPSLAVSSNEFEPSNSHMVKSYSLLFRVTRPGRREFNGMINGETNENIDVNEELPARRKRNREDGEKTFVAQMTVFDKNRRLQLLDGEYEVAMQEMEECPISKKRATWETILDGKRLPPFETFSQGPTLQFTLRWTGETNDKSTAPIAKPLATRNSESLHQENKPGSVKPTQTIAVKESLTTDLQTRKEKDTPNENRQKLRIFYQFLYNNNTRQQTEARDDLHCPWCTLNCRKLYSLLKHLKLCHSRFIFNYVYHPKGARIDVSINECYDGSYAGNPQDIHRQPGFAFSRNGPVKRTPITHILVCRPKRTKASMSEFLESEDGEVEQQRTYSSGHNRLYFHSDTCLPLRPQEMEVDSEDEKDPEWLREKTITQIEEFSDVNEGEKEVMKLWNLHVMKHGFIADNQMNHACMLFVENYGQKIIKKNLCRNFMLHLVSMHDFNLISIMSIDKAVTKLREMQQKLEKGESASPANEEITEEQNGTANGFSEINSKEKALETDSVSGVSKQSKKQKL
Chain of EZH2-Y641F (Q09028 whole entry partner): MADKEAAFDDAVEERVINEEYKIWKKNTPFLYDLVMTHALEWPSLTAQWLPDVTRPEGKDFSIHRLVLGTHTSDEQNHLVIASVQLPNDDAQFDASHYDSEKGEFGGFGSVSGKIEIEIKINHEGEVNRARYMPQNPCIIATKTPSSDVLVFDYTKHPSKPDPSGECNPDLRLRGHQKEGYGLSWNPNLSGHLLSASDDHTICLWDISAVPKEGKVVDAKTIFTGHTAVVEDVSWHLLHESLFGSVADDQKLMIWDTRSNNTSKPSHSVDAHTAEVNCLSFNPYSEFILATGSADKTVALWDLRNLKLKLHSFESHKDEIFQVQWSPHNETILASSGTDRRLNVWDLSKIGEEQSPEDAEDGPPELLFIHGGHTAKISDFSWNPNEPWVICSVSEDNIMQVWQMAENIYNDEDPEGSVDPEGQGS
Chain of EZH2-Y641F (Q6ZN18 whole entry partner): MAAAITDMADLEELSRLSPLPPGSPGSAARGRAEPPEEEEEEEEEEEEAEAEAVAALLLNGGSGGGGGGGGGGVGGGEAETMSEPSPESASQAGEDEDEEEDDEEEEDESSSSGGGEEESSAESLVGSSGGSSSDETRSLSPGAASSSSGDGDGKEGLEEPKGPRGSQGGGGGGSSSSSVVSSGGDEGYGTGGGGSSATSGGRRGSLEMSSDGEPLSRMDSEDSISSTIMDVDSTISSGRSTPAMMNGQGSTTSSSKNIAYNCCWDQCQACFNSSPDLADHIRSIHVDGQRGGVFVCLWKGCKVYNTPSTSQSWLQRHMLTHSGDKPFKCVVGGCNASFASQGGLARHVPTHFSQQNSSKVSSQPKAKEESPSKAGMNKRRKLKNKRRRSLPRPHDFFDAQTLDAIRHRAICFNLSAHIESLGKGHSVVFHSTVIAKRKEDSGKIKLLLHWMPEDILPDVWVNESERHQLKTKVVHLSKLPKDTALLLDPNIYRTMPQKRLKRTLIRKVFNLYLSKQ
Chain of EZH2-A677G (Q15910 whole entry A677G): as the sequence (Q15910 whole entry Y641F) above, with F641Y, A677G counted along it
Chain of EZH2-A677G (O75530 whole entry partner): as the sequence (O75530 whole entry partner) above
Chain of EZH2-A677G (Q15022 whole entry partner): as the sequence (Q15022 whole entry partner) above
Chain of EZH2-A677G (Q09028 whole entry partner): as the sequence (Q09028 whole entry partner) above
Chain of EZH2-A677G (Q6ZN18 whole entry partner): as the sequence (Q6ZN18 whole entry partner) above

Compound	Vd/F [1] [L/kg]	AUC [1] [ng·h/mL]	CL/F [1] [mL/min/kg]	half-life [1] [h]	MRT [1] [h]	Cmax [1] [ng/mL]	IC50 [2] [nM]	IC50 [3] [nM]	IC50 [4] [nM]	IC50 [5] [nM]
CCc1c(N(CC)C2CCOCC2)cc2oc(CN3CCCCC3)cc2c1C(=O)NCc1c(OC)cc(C)[nH]c1=O [Example 1, 5-Ethyl-6-(ethyl(tetrahydro-2H-pyran-4-yl)amino)-N-((4-methoxy-6-methyl-2-oxo-1,2-dihydropyridin-3-yl)methyl)-2-(piperidin-1-ylmethyl)benzofuran-4-carboxamide]	28.1 ± 18.4	246 ± 127	390 ± 201	0.8 ± 0.13	2.37 ± 0.18	88.9 ± 77.1	2	6.4	–	–
CCN(c1cc2occc2c(C(=O)NCc2c(OC)cc(C)[nH]c2=O)c1C)C1CCOCC1 [Example 18, 6-(Ethyl(tetrahydro-2H-pyran-4-yl)amino)-N-((4-methoxy-6-methyl-2-oxo-1,2-dihydropyridin-3-yl)methyl)-5-methylbenzofuran-4-carboxamide]	–	–	–	–	–	–	20	4	113	2.3
CCN(c1cc2occ(C)c2c(C(=O)NCc2c(OC)cc(C)[nH]c2=O)c1C)C1CCOCC1 [Example 20, 6-(Ethyl(tetrahydro-2H-pyran-4-yl)amino)-N-((4-methoxy-6-methyl-2-oxo-1,2-dihydropyridin-3-yl)methyl)-3,5-dimethylbenzofuran-4-carboxamide]	–	–	–	–	–	–	–	5.9	–	5.6
COc1cc(C)[nH]c(=O)c1CNC(=O)c1c(C)c(N(C)C2CCOCC2)cc2occc12 [Example 23, N-((4-Methoxy-6-methyl-2-oxo-1,2-dihydropyridin-3-yl)methyl)-5-methyl-6-(methyl(tetrahydro-2H-pyran-4-yl)amino)benzofuran-4-carboxamide]	–	–	–	–	–	–	68	4.8	–	0.3
CCN(c1cc2occc2c(C(=O)NCc2c(OC)cc(C)[nH]c2=O)c1C)[C@H]1CC[C@H](N(C)C)CC1 [Example 24, 6-(((1r,4r)-4-(Dimethylamino)cyclohexyl)(ethyl)amino)-N-((4-methoxy-6-methyl-2-oxo-1,2-dihydropyridin-3-yl)methyl)-5-methylbenzofuran-4-carboxamide]	–	–	–	–	–	–	19	–	45	3.4
CCN(c1cc2occc2c(C(=O)NCc2c(OC)cc(C)[nH]c2=O)c1C)C1CCN(C(C)=O)CC1 [Example 26, 6-((1-Acetylpiperidin-4-yl)(ethyl)amino)-N-((4-methoxy-6-methyl-2-oxo-1,2-dihydropyridin-3-yl)methyl)-5-methylbenzofuran-4-carboxamide]	–	–	–	–	–	–	–	2.9	–	2.8
CCc1c(N(CC)C2CCC(F)(F)CC2)cc2occc2c1C(=O)NCc1c(OC)cc(C)[nH]c1=O [Example 31, 6-((4,4-Difluorocyclohexyl)(ethyl)amino)-5-ethyl-N-((4-methoxy-6-methyl-2-oxo-1,2-dihydropyridin-3-yl)methyl)benzofuran-4-carboxamide]	–	–	–	–	–	–	69	2.7	–	4.5
CCc1c(N(CC)C2CCS(=O)(=O)CC2)cc2occc2c1C(=O)NCc1c(OC)cc(C)[nH]c1=O [Example 33, 6-((1,1-Dioxidotetrahydro-2H-thiopyran-4-yl)(ethyl)amino)-5-ethyl-N-((4-methoxy-6-methyl-2-oxo-1,2-dihydropyridin-3-yl)methyl)benzofuran-4-carboxamide]	–	–	–	–	–	–	22	2.7	–	0.8

Continued, values first:

Vd/F [1] [L/kg]	AUC [1] [ng·h/mL]	CL/F [1] [mL/min/kg]	half-life [1] [h]	MRT [1] [h]	Cmax [1] [ng/mL]	IC50 [2] [nM]	IC50 [3] [nM]	IC50 [4] [nM]	IC50 [5] [nM]	Compound
41.4 ± 7.91	378	222 ± 23	2.2 ± 0.68	3.18 ± 0.3	105 ± 44.5	13	–	39	–	CCc1c(N(CC)C2CCOCC2)cc2oc(CN3CCCCC3)cc2c1C(=O)NCc1c(C)cc(C)[nH]c1=O [Example 2, N-((4,6-Dimethyl-2-oxo-1,2-dihydropyridin-3-yl)methyl)-5-ethyl-6-(ethyl(tetrahydro-2H-pyran-4-yl)amino)-2-(piperidin-1-ylmethyl)benzofuran-4-carboxamide]
40.5 ± 7.97	487 ± 12	171 ± 4.4	2.73 ± 0.53	4.65 ± 0.184	91.5 ± 5.6	4	38	–	–	CCc1cc(C)[nH]c(=O)c1CNC(=O)c1c(CC)c(N(CC)C2CCOCC2)cc2oc(CN3CCCCC3)cc12 [Example 3, 5-Ethyl-6-(ethyl(tetrahydro-2H-pyran-4-yl)amino)-N-((4-ethyl-6-methyl-2-oxo-1,2-dihydropyridin-3-yl)methyl)-2-(piperidin-1-ylmethyl)benzofuran-4-carboxamide]
–	–	–	–	–	–	14	2.9	232	2.8	CCN(c1cc2oc(C)cc2c(C(=O)NCc2c(OC)cc(C)[nH]c2=O)c1C)C1CCOCC1 [Example 19, 6-(Ethyl(tetrahydro-2H-pyran-4-yl)amino)-N-((4-methoxy-6-methyl-2-oxo-1,2-dihydropyridin-3-yl)methyl)-2,5-dimethylbenzofuran-4-carboxamide]
–	–	–	–	–	–	15	0.9	160	3.2	CCN(c1cc2occc2c(C(=O)NCc2c(OC)cc(C)[nH]c2=O)c1C)C1CCN(S(C)(=O)=O)CC1 [Example 25, 6-(Ethyl(1-(methylsulfonyl)piperidin-4-yl)amino)-N-((4-methoxy-6-methyl-2-oxo-1,2-dihydropyridin-3-yl)methyl)-5-methylbenzofuran-4-carboxamide]
–	–	–	–	–	–	17	0.8	–	–	CCN(c1cc2oc(C#N)cc2c(C(=O)NCc2c(OC)cc(C)[nH]c2=O)c1C)C1CCOCC1 [Example 30, 2-Cyano-6-(ethyl(tetrahydro-2H-pyran-4-yl)amino)-N-((4-methoxy-6-methyl-2-oxo-1,2-dihydropyridin-3-yl)methyl)-5-methylbenzofuran-4-carboxamide]
–	–	–	–	–	–	18	4	190	–	CCc1c(N(CC)C2CC(F)(F)C2)cc2occc2c1C(=O)NCc1c(OC)cc(C)[nH]c1=O [Example 32, 6-((3,3-Difluorocyclobutyl)(ethyl)amino)-5-ethyl-N-((4-methoxy-6-methyl-2-oxo-1,2-di hydropyridin-3-yl)methyl)benzofuran-4-carboxamide]
